Consider seven compounds from US12441718B2, “Selective angiotensin II compounds” (VICORE PHARMA AB, priority 2021, dated 2025).

Usually Ki stands for a measure of affinity in units of concentration, obtained from inhibition or displacement. Broadly, the IC50 is the concentration that inhibits the measured activity by half.

Where two headings read alike, the source gives them in different places. Some results are limits rather than exact numbers.

A short description of data set [1]: Metabolic stability in pooled human liver microsomes. Type of data set: in vitro ADME. The note with it: human, pooled human liver microsomes, pooled human liver microsomes 0.5 mg/mL, 1 μM test compound, 37° C., * rows = mean of two runs. The method in brief: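 Pooled human liver microsomes (0.5 mg/mL in PBS) preincubated ±1 mM NADPH at 37° C; test compound added at 10 min to 1 μM final. Samples at 0, 5, 15 and 60 min quenched in acetonitrile, parent quantified by LC-MS/MS against a standard curve (terfenadine internal standard). Initial metabolic rate calculated with and without NADPH.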
On the technique in general: Liver microsomes are a subcellular fraction often used to study metabolism.

Data set [2] concerns the target T1, human recombinant AT2 receptor (Homo sapiens, UniProt P50052).
T1 construct: purchased Eurofins ITEM26 (protocol number)
T1 sequence (P50052 1-363): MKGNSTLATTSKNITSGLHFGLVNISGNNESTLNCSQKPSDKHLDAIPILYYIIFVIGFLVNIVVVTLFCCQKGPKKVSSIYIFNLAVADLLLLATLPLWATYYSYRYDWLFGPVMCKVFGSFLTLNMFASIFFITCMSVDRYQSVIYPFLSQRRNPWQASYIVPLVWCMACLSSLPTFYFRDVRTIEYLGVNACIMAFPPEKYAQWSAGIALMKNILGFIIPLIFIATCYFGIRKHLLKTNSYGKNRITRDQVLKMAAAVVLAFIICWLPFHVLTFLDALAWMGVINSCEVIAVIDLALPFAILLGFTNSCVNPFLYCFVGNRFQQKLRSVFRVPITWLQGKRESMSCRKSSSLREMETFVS
The data set can be described thus: Binding to AT2 receptor, radiometric scintillation assay (Eurofins ITEM26). The settings on record: for Ki: seven-point dose-response curve.

Data set [3] has as its target T2, human recombinant AT1 receptor (Homo sapiens, UniProt P30556).
T2 construct: purchased Eurofins ITEM24 (protocol number)
T2 sequence (P30556 1-359): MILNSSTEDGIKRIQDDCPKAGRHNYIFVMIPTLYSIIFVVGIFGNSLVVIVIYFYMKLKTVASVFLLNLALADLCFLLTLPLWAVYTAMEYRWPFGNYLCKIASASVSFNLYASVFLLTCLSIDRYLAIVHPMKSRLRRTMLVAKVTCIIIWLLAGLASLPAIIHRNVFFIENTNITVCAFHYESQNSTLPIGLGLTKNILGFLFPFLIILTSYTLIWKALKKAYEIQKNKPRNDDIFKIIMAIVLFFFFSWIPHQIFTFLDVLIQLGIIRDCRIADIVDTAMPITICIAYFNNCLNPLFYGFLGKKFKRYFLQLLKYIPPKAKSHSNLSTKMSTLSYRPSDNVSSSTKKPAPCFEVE
The data set is described as follows: Binding to AT1 receptor, radiometric scintillation assay (Eurofins ITEM24). The note with it: test compounds at 1 and 10 μM, ligand 125I(sar1,Ile8)-AT-II; * rows = mean of runs.

The target of data set [4] is T3, CYP1A2 (Homo sapiens, UniProt P05177).
T3 construct: isoform-specific substrates incubated with human liver microsomes; tissue Eurofins ITEMG232 (protocol number); host or cells: human liver microsomes
T3 sequence (P05177 whole entry, canonical isoform): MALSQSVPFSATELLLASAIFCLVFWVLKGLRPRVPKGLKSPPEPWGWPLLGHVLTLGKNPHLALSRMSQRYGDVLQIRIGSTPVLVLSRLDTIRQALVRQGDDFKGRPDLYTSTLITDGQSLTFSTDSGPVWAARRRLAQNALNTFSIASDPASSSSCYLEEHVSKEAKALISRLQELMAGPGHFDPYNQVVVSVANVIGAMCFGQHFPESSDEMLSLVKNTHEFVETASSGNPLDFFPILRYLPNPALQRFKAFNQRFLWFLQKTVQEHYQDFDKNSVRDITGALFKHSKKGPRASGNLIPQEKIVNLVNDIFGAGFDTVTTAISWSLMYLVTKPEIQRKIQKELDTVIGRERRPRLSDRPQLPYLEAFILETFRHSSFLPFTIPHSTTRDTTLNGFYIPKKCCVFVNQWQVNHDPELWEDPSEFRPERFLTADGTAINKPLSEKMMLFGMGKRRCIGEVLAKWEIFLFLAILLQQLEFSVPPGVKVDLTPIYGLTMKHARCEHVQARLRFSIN
The data set is described as follows: in vitro. It counts as in vitro ADME. The note with it: human, microsomes, human liver microsomes, substrate phenacetin, read-out: CYP1A2 Inh %.
Method: The following substrates were used; CYP1A phenacetin, CYP2B36 bupropion, CYP2C8 paclitaxel and amodiaquine, CYP2C9 diclofenac, CYP2C19 omeprazole, CYP2D6 dextromethorphan, CYP3A midazolam and testosterone.
At the end of the incubation, the formation of metabolite was monitored by HPLC-MS/MS as the peak area response.

The target in data set [5] is T4, CYP2B6 (Homo sapiens, UniProt P20813).
T4 construct: isoform-specific substrates incubated with human liver microsomes; tissue Eurofins ITEMG232 (protocol number); host or cells: human liver microsomes
T4 sequence (P20813 1-491): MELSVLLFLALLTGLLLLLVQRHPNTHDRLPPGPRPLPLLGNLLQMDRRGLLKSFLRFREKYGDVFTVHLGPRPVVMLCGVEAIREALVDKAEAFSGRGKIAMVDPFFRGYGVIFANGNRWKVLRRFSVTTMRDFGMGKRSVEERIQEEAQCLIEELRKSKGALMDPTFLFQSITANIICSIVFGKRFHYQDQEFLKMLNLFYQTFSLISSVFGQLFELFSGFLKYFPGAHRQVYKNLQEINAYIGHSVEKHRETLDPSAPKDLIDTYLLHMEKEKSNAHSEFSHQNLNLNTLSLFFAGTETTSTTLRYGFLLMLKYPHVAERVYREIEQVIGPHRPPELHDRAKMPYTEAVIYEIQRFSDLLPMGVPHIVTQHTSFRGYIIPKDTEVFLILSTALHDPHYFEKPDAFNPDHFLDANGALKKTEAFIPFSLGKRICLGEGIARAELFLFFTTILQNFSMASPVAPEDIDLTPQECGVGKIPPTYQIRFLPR
The data set can be described thus: CYP inhibition in human liver microsomes (Eurofins ITEMG232). Type of data set: in vitro ADME. The note with it: probe bupropion, substrate bupropion, read-out: CYP2B6 Inh %.

Data set [6] deals with T5, CYP2C19 (Homo sapiens, UniProt P33261).
T5 construct: isoform-specific substrates incubated with human liver microsomes; tissue Eurofins ITEMG232 (protocol number); host or cells: human liver microsomes
T5 sequence (P33261 whole entry, canonical isoform): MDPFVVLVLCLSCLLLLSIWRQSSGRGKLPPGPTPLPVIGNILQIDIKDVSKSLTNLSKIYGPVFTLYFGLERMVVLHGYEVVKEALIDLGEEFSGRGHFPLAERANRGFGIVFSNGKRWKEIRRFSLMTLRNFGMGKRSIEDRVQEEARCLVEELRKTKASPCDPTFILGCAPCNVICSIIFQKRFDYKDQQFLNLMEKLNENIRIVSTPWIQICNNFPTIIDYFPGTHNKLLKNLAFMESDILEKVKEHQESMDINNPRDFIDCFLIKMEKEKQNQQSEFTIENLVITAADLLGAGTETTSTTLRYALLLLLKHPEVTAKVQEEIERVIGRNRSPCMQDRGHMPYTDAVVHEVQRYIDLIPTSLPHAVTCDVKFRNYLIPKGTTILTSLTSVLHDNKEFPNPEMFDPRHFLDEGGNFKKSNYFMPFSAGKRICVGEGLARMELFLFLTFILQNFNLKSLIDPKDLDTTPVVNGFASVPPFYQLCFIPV
Described as above. Type of data set: in vitro ADME. The settings on record: human, probe omeprazole, substrate omeprazole, read-out: CYP2C19 Inh %.

Data set [7] has as its target T6, CYP2C8 (Homo sapiens, UniProt P10632).
T6 construct: isoform-specific substrates incubated with human liver microsomes; tissue Eurofins ITEMG232 (protocol number); host or cells: human liver microsomes
T6 sequence (P10632 1-490): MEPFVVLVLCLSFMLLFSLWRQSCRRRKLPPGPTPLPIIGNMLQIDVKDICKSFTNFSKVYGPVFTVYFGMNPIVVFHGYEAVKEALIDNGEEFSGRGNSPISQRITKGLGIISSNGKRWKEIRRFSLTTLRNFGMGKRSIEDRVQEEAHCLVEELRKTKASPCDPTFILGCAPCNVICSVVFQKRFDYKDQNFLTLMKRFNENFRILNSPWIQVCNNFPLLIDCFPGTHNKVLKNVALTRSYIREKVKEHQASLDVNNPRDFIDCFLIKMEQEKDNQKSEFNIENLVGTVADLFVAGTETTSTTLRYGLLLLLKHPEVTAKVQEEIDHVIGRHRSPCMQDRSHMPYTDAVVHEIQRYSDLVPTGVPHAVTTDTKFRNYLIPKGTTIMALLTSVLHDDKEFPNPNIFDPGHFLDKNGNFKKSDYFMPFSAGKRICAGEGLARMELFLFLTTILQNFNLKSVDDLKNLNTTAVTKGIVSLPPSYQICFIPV
Described as above. Type of data set: in vitro ADME. The settings on record: human, probe paclitaxel and amodiaquine, substrate paclitaxel and amodiaquine, read-out: CYP2C8 Inh %.

The target of data set [8] is T7, CYP2D6 (Homo sapiens, UniProt P10635).
T7 construct: isoform-specific substrates incubated with human liver microsomes; tissue Eurofins ITEMG232 (protocol number); host or cells: human liver microsomes
T7 sequence (P10635 whole entry, canonical isoform): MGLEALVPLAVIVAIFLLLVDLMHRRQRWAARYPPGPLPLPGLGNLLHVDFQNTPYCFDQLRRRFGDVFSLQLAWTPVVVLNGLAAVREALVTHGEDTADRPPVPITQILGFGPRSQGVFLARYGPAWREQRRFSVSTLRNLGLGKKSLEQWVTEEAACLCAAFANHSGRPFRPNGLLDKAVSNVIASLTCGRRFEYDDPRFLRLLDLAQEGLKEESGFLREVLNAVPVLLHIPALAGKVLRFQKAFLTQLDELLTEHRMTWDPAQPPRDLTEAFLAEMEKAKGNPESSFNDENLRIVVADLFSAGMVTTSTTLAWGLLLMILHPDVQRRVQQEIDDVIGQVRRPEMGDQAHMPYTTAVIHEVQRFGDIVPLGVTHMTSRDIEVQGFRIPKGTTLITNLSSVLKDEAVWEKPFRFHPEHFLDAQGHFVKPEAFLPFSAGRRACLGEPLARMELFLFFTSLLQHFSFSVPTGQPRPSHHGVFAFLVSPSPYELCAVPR
The description is as above. Type of data set: in vitro ADME. The settings on record: probe dextromethorphan, substrate dextromethorphan, read-out: CYP2D6 Inh %.

Data set [9] deals with CYP3A4&5. The data set can be described thus: in vitro. The note with it: human, human liver microsomes, probe testosterone.
Data set [10] deals with CYP2C9 (Homo sapiens, UniProt P11712). The data set can be described thus: CYP inhibition in human liver microsomes (Eurofins ITEMG232). Type of data set: in vitro ADME. Further details: isoform-specific substrates incubated with human liver microsomes; tissue Eurofins ITEMG232 (protocol number); host or cells: human liver microsomes. The settings on record: human, probe diclofenac, substrate diclofenac, read-out: CYP2C9 Inh %.
CYP2C9, sequence (P11712 whole entry, canonical isoform): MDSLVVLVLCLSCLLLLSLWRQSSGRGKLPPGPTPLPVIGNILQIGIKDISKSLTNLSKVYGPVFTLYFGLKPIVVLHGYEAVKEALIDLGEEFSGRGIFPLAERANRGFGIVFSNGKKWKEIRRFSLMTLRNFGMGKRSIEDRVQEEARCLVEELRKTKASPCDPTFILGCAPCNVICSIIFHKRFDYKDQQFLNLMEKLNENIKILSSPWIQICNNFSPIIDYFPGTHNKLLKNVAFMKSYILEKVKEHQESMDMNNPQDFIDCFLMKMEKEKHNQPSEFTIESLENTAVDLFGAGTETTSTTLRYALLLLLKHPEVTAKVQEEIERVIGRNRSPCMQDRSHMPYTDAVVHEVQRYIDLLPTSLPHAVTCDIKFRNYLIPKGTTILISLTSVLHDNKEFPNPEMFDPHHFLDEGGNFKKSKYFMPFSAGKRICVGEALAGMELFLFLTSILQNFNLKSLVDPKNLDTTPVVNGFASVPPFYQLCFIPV

Data set [11] addresses CYP3A4 (Homo sapiens, UniProt P08684). The data set can be described thus: CYP inhibition in human liver microsomes (Eurofins ITEMG232), midazolam substrate. The settings on record: human, probe midazolam, read-out: CYP3A4 midazolam Inh %. Type of data set: in vitro ADME. Further details: isoform-specific substrates incubated with human liver microsomes; tissue Eurofins ITEMG232 (protocol number); host or cells: human liver microsomes.

[12] abbreviates: with 1 mM NADPH, read-out: T1/2, + NaDPH.
[13] abbreviates: without NADPH, read-out: T1/2, no NaDPH.
[14] abbreviates: ligand 125I CGP 42112A, * rows = mean of runs.
Where [15] appears, read: test compounds at 1, 10, 100 and 1000 nM, ligand 125I CGP 42112A, * rows = mean of runs, read-out: AT2 GraFit IC50.

CYP3A4, sequence (P08684 whole entry, canonical isoform): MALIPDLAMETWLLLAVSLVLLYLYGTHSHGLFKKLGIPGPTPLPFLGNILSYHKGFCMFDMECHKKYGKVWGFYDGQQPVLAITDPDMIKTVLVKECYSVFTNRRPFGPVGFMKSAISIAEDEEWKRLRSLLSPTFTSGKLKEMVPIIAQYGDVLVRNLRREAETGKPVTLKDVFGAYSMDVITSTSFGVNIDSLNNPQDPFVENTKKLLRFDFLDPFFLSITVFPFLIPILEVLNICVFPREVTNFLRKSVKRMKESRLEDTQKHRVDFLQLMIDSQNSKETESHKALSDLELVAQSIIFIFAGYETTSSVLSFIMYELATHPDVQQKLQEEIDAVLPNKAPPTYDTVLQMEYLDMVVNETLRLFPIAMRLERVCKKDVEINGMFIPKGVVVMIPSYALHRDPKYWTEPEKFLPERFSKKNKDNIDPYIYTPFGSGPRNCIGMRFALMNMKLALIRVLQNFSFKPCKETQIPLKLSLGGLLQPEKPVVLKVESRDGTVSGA

Take `CC(C)Cc1ccc(S(=O)(=O)Nc2ncc(C(F)(F)F)cn2)c(-c2ccc(Cn3ccnc3C(C)(C)C)cc2)c1` [Example 4, 4′-((2-(tert-Butyl)-1H-imidazol-1-yl)methyl)-5-isobutyl-N-(5-(trifluoromethyl)pyrimidin-2-yl)-[1,1′-biphenyl]-2-sulfonamide]: the half-life at 1 μM in data set [1] (setting [12]) and in data set [1] (setting [13]) was above 1 h each time. The Ki in [2] (setting [14]) was found to be 6.18 nM. Also, the figures for the IC50 in data set [2] (setting [15]) and in [3] were 12.4 nM and 6200 nM, respectively. Further, the inhibition at 10 µM turned out to be 19.5% in data set [4]; 36.2% in data set [5]; 62.3% in data set [6]; 94.3% in [7]; 21.5% in [8]; 1.5% in data set [9]. The figures for the inhibition at 10 µM in data set [10] and in data set [11] were 68.3% and 33.8%, respectively.

Consider `Cc1nc(NS(=O)(=O)c2ccc(CC(C)C)cc2-c2ccc(Cn3ccnc3C(C)(C)C)c(F)c2)oc1C` [Example 24, 4′-((2-(tert-Butyl)-1H-imidazol-1-yl)methyl)-N-(4,5-dimethyloxazol-2-yl)-3′-fluoro-5-isobutyl-[1,1′-biphenyl]-2-sulfonamide], for which the half-life at 1 μM was 0.55 h in [1] (setting [12]) and above 1 h in [1] (setting [13]). Moreover, the Ki in data set [2] (setting [14]) stood at 0.72 nM. Also, the IC50 in [2] (setting [15]) was found to be 1.45 nM; in data set [3], 1100 nM. The inhibition at 10 µM in data set [4] was -19.4%; in [5] it was 26.9%; in data set [6] it was 57%; in data set [7], 59.6%; in data set [8] it was 1.1%; in [9], 47.5%. The inhibition at 10 µM in [10] stood at 52.7%; in data set [11] it was 36%.

As for `CC(C)Cc1ccc(S(=O)(=O)Nc2ncc(C#N)cn2)c(-c2ccc(Cn3ccnc3C(C)(C)C)c(F)c2)c1` [Example 12, 4′-((2-(tert-Butyl)-1H-imidazol-1-yl)methyl)-N-(5-cyanopyrimidin-2-yl)-3′-fluoro-5-isobutyl-[1,1′-biphenyl]-2-sulfonamide], the results for the half-life at 1 μM in [1] (setting [12]) and in data set [1] (setting [13]) were 0.967 h and above 1 h, respectively. Moreover, the Ki in [2] (setting [14]) turned out to be 2.08 nM. Besides, the IC50 in data set [2] (setting [15]) was 4.17 nM; in [3] it was 1700 nM. The inhibition at 10 µM in data set [4] is 16.7%; in data set [5] it was 35.8%; in data set [6], 48.9%; in data set [7] it was 89.6%; in data set [8], 18.4%; in data set [9] it was -41.8%. The results for the inhibition at 10 µM in data set [10] and in [11] were 82.3% and 14.6%, respectively.

As for `CC(C)Cc1ccc(S(=O)(=O)Nc2ncccn2)c(-c2ccc(Cn3ccnc3C(C)(C)C)c(F)c2)c1` [Example 7, 4′-((2-(tert-Butyl)-1H-imidazol-1-yl)methyl)-3′-fluoro-5-isobutyl-N-(pyrimidin-2-yl)-[1,1′-biphenyl]-2-sulfonamide], the values for the half-life at 1 μM in data set [1] (setting [12]) and in data set [1] (setting [13]) were 0.9 h and above 1 h, respectively. Also, in [2] (setting [14]), the Ki worked out at 1.27 nM. Further, the values for the IC50 in data set [2] (setting [15]) and in data set [3] were 2.54 nM and 15000 nM, respectively. Further, the inhibition at 10 µM came out at 45.9% in data set [4]; 38.9% in data set [5]; 41% in data set [6]; 78% in data set [7]; 15% in data set [8]; 3.7% in data set [9]. In addition, the results for the inhibition at 10 µM in data set [10] and in data set [11] were 41.3% and -12.5%, respectively.

In the case of `CC(C)Cc1cc(-c2ccc(Cn3ccnc3C3CC3)c(F)c2)c(S(=O)(=O)Nc2ncccn2)s1` [Example 47, 3-(4-((2-Cyclopropyl-1H-imidazol-1-yl)methyl)-3-fluorophenyl)-5-isobutyl-N-(pyrimidin-2-yl)thiophene-2-sulfonamide], the half-life at 1 μM in data set [1] (setting [12]) and in data set [1] (setting [13]) was above 1 h in each case. The half-maximal inhibitory concentration (IC50) in data set [2] (AT2 GraFit IC50, value in parentheses after <0.3, value printed in parentheses behind the bound <0.3) is 0.25 nM; in data set [2] (setting [15]), below 0.3 nM; in [3], 4900 nM.

For the compound `COc1cc(NS(=O)(=O)c2ccc(CC(C)C)cc2-c2ccc(Cn3ccnc3C(C)(C)C)c(F)c2)nc(OC)n1` [Example 35, 4′-((2-(tert-Butyl)-1H-imidazol-1-yl)methyl)-N-(2,6-dimethoxypyrimidin-4-yl)-3′-fluoro-5-isobutyl-[1,1′-biphenyl]-2-sulfonamide], the half-life at 1 μM in data set [1] (setting [12]) was 0.133 h; in [1] (setting [13]) it was above 1 h. For the same compound, the inhibition constant (Ki) in data set [2] (setting [14]) turned out to be 59.7 nM. Besides, the values for the IC50 in data set [2] (setting [15]) and in data set [3] were 119 nM and 30800 nM, respectively.

For the compound `CC(C)Cc1cc(-c2ccc(Cn3ccnc3C(C)C)cc2)c(S(=O)(=O)Nc2ncccn2)s1` [Example 49, 5-Isobutyl-3-(4-((2-isopropyl-1H-imidazol-1-yl)methyl)phenyl)-N-(pyrimidin-2-yl)thiophene-2-sulfonamide], the half-life at 1 μM in data set [1] (setting [12]) and in [1] (setting [13]) was above 1 h in each case. In addition, the Ki in [2] (setting [14]) is 0.68 nM. Besides, the IC50 in [2] (setting [15]) was found to be 1.36 nM; in data set [3] it was 6700 nM.
